The subject of one test is KB-V1. As to the kind of experiment: Growth inhibition of multidrug-resistant KB-V1 cells (MTT assay), with or without verapamil. In kind it is cell-based. The conditions noted are these: 120 h; KB-V1, mdr human cervix carcinoma; without verapamil; MTT after 5 days. As for the experimental part:
The novel antibiotics archazolids and apicularens (Fig. 1) were checked for their impact on the cell growth of a variety of mammalian cell lines from different tissues (Tab. 1). […] Apicularen B was the only exception, with an average IC50 value two orders of magnitude higher. Growth inhibition of the multidrug-resistant cell line KB-V1 was also measured in the presence of verapamil. […] The data in Tab 1. show, that unlike the archazolids, the apicularens are poor substrates of Pgp. To visualize the impact of the antibiotics, PtK2 (potoroo kidney) cells were incubated with the inhibitors and stained for intact acidic lysosomes (Fig. 2). […] The same observation was made with KB-3-1 cells (data not shown). […] Unlike the cell lines listed in Tab. 1, the growth of PtK2 cells was not completely stopped. The same holds true for A-498 cells (human kidney carcinoma). Both cell lines grow epithelial-like. There was obviously a differential reaction of cell lines to V-ATPase inhibitors. For A-431 cells (human epidermoid carcinoma) a dependence on the expression of the EGF receptor was shown.
(§1) Cell lines were obtained from the German Collection of Microorganisms and Cell Cultures (DSMZ). Cell lines 3Y1 and M1 (embryonal fibroblasts from 129/Ola × C57BL/6 mice, [30]) were a generous gift from Dr. S. Miyamoto, Fukoka, Japan, and Dr. P. F. Mühlradt, Braunschweig, Germany. All cell lines were cultivated under conditions recommended by the supplier. Growth inhibition was measured in microtiterplates. Aliquots of 120 μl of the suspended cells (50,000/ml) were given to 60 μl of a serial dilution of the inhibitor. After 5 days, growth was determined using the MTT assay.
Background: Tetrazolium dyes change colour on reduction, which living cells bring about.

Test [1] deals with A-594. Description: Growth inhibition of A-594 cells (MTT assay). In kind it is cell-based, human. The following applies: 120 h, read-out: IC50 growth inhibition. As for the experimental part:
as §1

The next test has as its system M1. Description: Growth inhibition of M1 cells (MTT assay). In kind it is cell-based, mouse. The conditions noted are these: 120 h, read-out: IC50 growth inhibition. The protocol:
as §1

The next test deals with PtK2 cells. As to the kind of experiment: Inhibition of lysosomal acidification (LysoTracker staining). In kind it is cell-based, potoroo. The following applies: 4 hours with inhibitor. As for the experimental part:
PtK2 (ATCC CCL-56) or KB-3-1 cells were grown on glass coverslips (13 mm diameter) in four-well-plates. Exponentially growing cells were incubated with the inhibitors for 4 hours and stained for lysosomes with 50 nM LysoTracker Red DND-99 and for mitochondria with 75 nM MitoTracker Green FM (both from Molecular Probes) at 37°C for 30 min. The nuclei were stained using Hoechst 33258 (5 μg/ml). The coverslips were mounted upside down in PBS, fixed with nail polish, and observed under the fluorescent microscope.

The next test concerns L-929. Also on record: method as in PMID 12931860. The conditions noted are these: L-929, murine connective tissue; ref [17]; read-out: IC50 growth inhibition; cited from earlier work.
In another test the test system is 3Y1. As to the kind of experiment: Growth inhibition of 3Y1 cells (MTT assay). In kind it is cell-based, rat. The following applies: read-out: IC50 growth inhibition. The protocol: as §1
The target of test [2] is T1, Vo subunit c (Manduca sexta, UniProt P31403).
T1 construct: from tissue; host or cells: midgut of Manduca sexta larvae (purified V-ATPase)
T1 sequence (P31403 whole entry): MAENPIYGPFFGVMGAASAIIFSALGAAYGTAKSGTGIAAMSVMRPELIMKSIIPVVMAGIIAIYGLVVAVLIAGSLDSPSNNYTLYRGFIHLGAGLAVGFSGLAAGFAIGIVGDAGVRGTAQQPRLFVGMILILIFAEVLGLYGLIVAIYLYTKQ
Details: method as in PMID 12186879. The conditions noted are these: previous study; ref [10]; cited from earlier work.

Test [3] has as its target T1, Vo subunit c. Description: Protection of V-ATPase subunit c from photoaffinity labelling by I-concanolide A. In kind it is binding. The following applies: pre-incubation 100 μM or 10 μM, 60 min on ice; I-concanolide A 10 μM; UV. As for the experimental part: Twenty micrograms of the samples were pre-incubated with the inhibitors for 1 h on ice. The labelled I-concanolide A was then added to give a final concentration of 10 μM. Controls were run without effectors. Mixtures with volumes of 40 μl were incubated for an additional 1 h on ice and then treated for 3 min with UV light (366 nm) on ice. After UV irradiation, 10 μl of 5-fold sample buffer was added, the mixture was heated for 45 s at 95°C, cooled on ice, and subjected to Tricine-SDS-PAGE (16.5% T, 3% C separating gel and 10%T, 3% C spacer gel), followed by Coomassie staining. The gels were sealed in plastic wrap before they were exposed to a phosphoscreen for up to 72 h and analyzed with the aid of a phosphoimager (Molecular Dynamics).

In a further test the test system is bacterial growth. The conditions noted are these: ref [11],[15],[17]; cited from earlier work.
In a further test the target is T2, Na+/K+-ATPase (Sus scrofa, UniProt P05024).
T2 construct: highly purified, Na^+/K^+-ATPase containing plasma membranes from pig kidney; from tissue; host or cells: pig kidney, purified plasma membranes
As to the kind of experiment: Inhibition of Na+/K+-ATPase from pig kidney. In kind it is biochemical. The following applies: inhibitor 1 μM. As for the experimental part: (§2) The V-ATPase holoenzyme was purified as published elsewhere. Preparation of highly purified membranes containing Na^+/K^+-ATPase from pig kidney followed the protocol of Jørgensen with the three main steps of differential centrifugation, incubation with SDS in the presence of ATP and sucrose density gradient centrifugation in a fixed angle rotor, and led to a specific enzyme activity which was in the same range as that reported by the authors. The resulting sample was stored frozen at -20°C. To prepare crude membrane extracts, the hearts of three mice were washed three times with an ice-cold buffer of pH 8.1 consisting of 0.25 M sucrose, 5 mM Tris-HCl, 5 mM EDTA, and 10 mM Pefabloc SC (Biomol), homogenized in 5 ml of this buffer and centrifuged at 4°C for 25 min at 233,000 × gmax in a fixed angle rotor. The resulting pellet was resuspended in 5 ml of a buffer of pH 7.5, consisting of 5 mM Tris-MOPS (3-morpholinopropanesulfonic acid), 10 mM NaCl, 10 mM Pefabloc SC, 9.6 mM 2-mercaptoethanol, 0.53 mM EGTA and 0.1 % Triton X-100. After an aliquot for protein determination had been taken, 10% bovine serum albumin (final concentration) was added to the suspension which was then stored on ice until the activity assays were run. Beef heart mitochondria were isolated by differential centrifugation, following the protocol of Smith by using a blender to homogenize the heart mince. The initial homogenization buffer consisted of 250 mM saccharose, 10 mM KH2PO4, 10 mM Tris, 2 mM EGTA, 2 mM MgCl2, pH 7.4, and further isolation procedures were carried out in the same medium without EGTA [24]. Submitochondrial particles were obtained by ultrasonic treatment of the mitochondria.
(§3) Standard V-ATPase assays with a final volume of 160 μl and a pH of 8.1 consisted of 3–4 μg of protein, 50 mM Tris-MOPS, 3 mM 2-mercaptoethanol, 1 mM MgCl2, 20 mM KCl, 0.003% C12E10, 20 mM NaCl, and 3 mM Tris-HCl. After 5 min of pre-incubation at 30°C with or without inhibitors, 1 mM Tris-ATP was added and after incubation for 2 min the reaction was stopped by placing the tube in liquid nitrogen. Assays using Na^+/K^+-ATPase were performed in 160 μl at pH 7.5 and contained 0.5 μg of protein, 50 mM Tris-MOPS, 5 mM imidazole, 0.2 mM EDTA, 4 mM MgCl2, 20 mM KCl and 100 mM NaCl. After 5 min of pre-incubation at 37°C with or without inhibitors, 3 mM Tris-ATP was added and after 1 min of incubation the reaction was stopped by placing the tube in liquid nitrogen. […] After 5 min of pre-incubation at 30°C with or without inhibitors, 1 mM Tris-ATP was added and after an incubation time of 10 min the reaction was stopped by placing the tubes in liquid nitrogen. ATPase assays with submitochondrial particles from beef heart were performed in a final volume of 1 ml and a pH of 8.0. The samples contained 9–12 μg protein, 50 mM Tris, 50 mM KCl and 2.5 mM MgCl2. After 5 min of preincubation with or without inhibitors, 5 mM ATP was added, and after an additional incubation time of 15 min the reaction was stopped by the addition of 0.4 ml of 20 % TCA.
(§4) Inorganic phosphate produced in the assays of V-ATPase, Na^+/K^+-ATPase and mouse heart F-ATPase was measured according the protocol of Wieczorek et al., while the determination of inorganic phosphate produced in the assays of beef heart F-ATPase followed the method of Fiske and Subarrow using ascorbic acid as reducing agent.

Test [4] concerns A-594. Details: method as in PMID 10048565. The following applies: A-594, human lung carcinoma; ref [15]; read-out: IC50 growth inhibition; cited from earlier work.
Test [5] addresses T3, V-ATPase holoenzyme from the midgut of the tobacco hornworm (Manduca sexta, UniProt P31403).
T3 construct: purified V-ATPase holoenzyme from the midgut of the tobacco hornworm; from tissue; host or cells: midgut of fifth instar Manduca sexta larvae
As to the kind of experiment: Inhibition of purified V-ATPase holoenzyme activity. The conditions noted are these: for IC50 per mg of protein, purified V-ATPase: equivalent of the half-maximal concentration. In kind it is biochemical. As for the experimental part: as §2, §3, §4
Fifth instar larvae of M. sexta (Lepidoptera, Sphingidae), weighing 6–8 g, were reared under long day conditions (16 h of light) at 27°C using a synthetic diet modified according to Bell et al.

In test [6] the target is T3, V-ATPase holoenzyme from the midgut of the tobacco hornworm. Details: method as in PMID 12186879. The following applies: ref [10], cited from earlier work.
[7] abbreviates: A-594, human lung carcinoma, MTT after 5 days.
Setting [8] is: M1, mouse embryogenic fibroblast cell line, MTT after 5 days.
Setting [9] is: 120 h, 3Y1, rat embryogenic fibroblast cell line, MTT after 5 days.

Like-named read-outs stand apart in the source and are kept apart here.

T3 sequence (P31403 whole entry): as above

Turning to `CO/C1=C\C(C)=C\[C@@H](C)[C@@H](O)[C@@H](C)C/C(C)=C/C=C/[C@H](OC)[C@@H]([C@@H](C)[C@@H](O)[C@H](C)[C@@]2(O)C[C@@H](O)[C@H](C)[C@@H](C(C)C)O2)OC1=O` [bafilomycin A1, reference compound], the IC50 in the test with KB-V1 is 7.2 nM; in the test on A-594 [1] (setting [7]), 0.4 nM; with M1 (setting [8]) it was 2.6 nM; in the test with L-929, 3.2 nM; with 3Y1 (setting [9]) it was 5.6 nM. In the test on PtK2 cells, the “red LysoTracker staining indicating acidic lysosomes” value is on record as “disappeared”. Also, on Vo subunit c [2], the “labelling of / binding to subunit c” value is reported as “prevented”.

Turning to `CC/C=C\C=C/C(=O)N/C=C/C[C@H]1C[C@H]2C[C@H](O)C[C@H](Cc3cccc(O)c3C(=O)O1)O2` [apicularen A], the IC50 with KB-V1 was 23 nM; with M1 (setting [8]), 1.4 nM; in the test with A-594 [4], 0.23 nM; in [5] (purified holoenzyme, 3–4 μg protein, pH 8.1, 30°C, read-out: half-maximal inhibition concentration of purified V-ATPase) it was ~20 nM; in the test on 3Y1 (setting [9]), 3.2 nM. Besides, the “labelling of subunit c by I-concanolide A after pre-incubation” value on Vo subunit c [3] is “did not appear to interfere”. Besides, the “inhibition of bacterial growth” value with bacterial growth is given as “failed to inhibit”. Also, the “specific activity of Na+/K+-ATPase” value at Na+/K+-ATPase (experiment 1, control 19.0) amounted to 17.3 µmol/mg/min; on Na+/K+-ATPase (experiment 2, control 15.9), 13.2 µmol/mg/min. Besides, on Na+/K+-ATPase, the “effect on Na+/K+-ATPase activity” value was “only slightly affected”. Moreover, in test [5], the “IC50 per mg of protein, purified V-ATPase” value (“IC50 per mg of protein” for short) is reported as “ca. 0.8 nmol per mg of protein”. The “red LysoTracker staining indicating acidic lysosomes” value in the test on PtK2 cells was “disappeared”.

As to `CNC(=O)O[C@@H](CC(C)C)c1nc([C@H]2OC(=O)/C(C)=C/C/C(C)=C/[C@@H](O)[C@@H](C)\C=C(C)/C=C(C)\C=C\[C@@H](O)[C@H](C)[C@H](OC)/C(C)=C/C=C/[C@@H]2C)cs1` [archazolid A], the IC50 in the test with KB-V1 was 48 nM; with A-594 [1] (Homo sapiens), 0.54 nM; in the test on M1 (Mus musculus, Fibroblast), 0.27 nM; in test [5], ~20 nM; in the test on L-929 it was 0.81 nM; in the test on 3Y1 (Rattus norvegicus, 3Y1, 120 h), 0.95 nM. The “labelling of subunit c by I-concanolide A after pre-incubation” value at Vo subunit c [3] is listed as “completely abolished”. In addition, the “inhibition of bacterial growth” value with bacterial growth was “failed to inhibit”. Also, the “specific activity of Na+/K+-ATPase” value on Na+/K+-ATPase (experiment 1, control 19.0) is 17.1 µmol/mg/min; on Na+/K+-ATPase (experiment 2, control 15.9), 12.2 µmol/mg/min. Further, the “effect on Na+/K+-ATPase activity” value at Na+/K+-ATPase was “only slightly affected”. Further, in test [5], the “IC50 per mg of protein” value is listed as “ca. 0.8 nmol per mg of protein”. Also, in the test with PtK2 cells, the “red LysoTracker staining indicating acidic lysosomes” value was “disappeared”.

Regarding `C/C=C/[C@H]1O[C@@](O)([C@@H](C)[C@H](O)[C@H](C)[C@H]2OC(=O)/C(OC)=C/C(C)=C/[C@@H](C)[C@@H](O)[C@@H](CC)[C@@H](O)[C@H](C)C/C(C)=C/C=C/[C@@H]2OC)C[C@@H](O[C@H]2C[C@@H](O)[C@H](OC(N)=O)[C@@H](C)O2)[C@@H]1C` [concanamycin A, reference compound], the IC50 was 28 nM in the test with KB-V1; 0.17 nM with A-594 [1] (setting [7]); 0.56 nM in the test on M1 (setting [8]); 0.23 nM with L-929; ~10 nM in test [6] (read-out: half-maximal inhibition concentration of purified V-ATPase); 1.4 nM with 3Y1 (setting [9]). In addition, the “specific activity of Na+/K+-ATPase” value at Na+/K+-ATPase (experiment 1, control 19.0) was found to be 16.7 µmol/mg/min; at Na+/K+-ATPase (experiment 2, control 15.9) it was 12.7 µmol/mg/min. At Na+/K+-ATPase, the “effect on Na+/K+-ATPase activity” value was “slight inhibition of comparable size”. For the same compound, in the test with PtK2 cells, the “red LysoTracker staining indicating acidic lysosomes” value was “disappeared”. Also, the “IC50 per mg of protein” value in test [6] is reported as “ca. 0.5 nmol per mg of protein”. Further, the “labelling of / binding to subunit c” value at Vo subunit c [2] is recorded as “prevented”.

(Values after publication PMC1190152, “Archazolid and apicularen: Novel specific V-ATPase inhibitors” (BMC Biochemistry, 2005).)
